IC50 data for 58 molecules are collected here from patent publication US20250304537A1 (Repare Therapeutics Inc., priority 2022, published 2025).

Molecules are shown by their SMILES. Bounds are passed on as bounds.

Sequence of recombinant human Myt1 (full length PKMYT1) (Q99640 whole entry): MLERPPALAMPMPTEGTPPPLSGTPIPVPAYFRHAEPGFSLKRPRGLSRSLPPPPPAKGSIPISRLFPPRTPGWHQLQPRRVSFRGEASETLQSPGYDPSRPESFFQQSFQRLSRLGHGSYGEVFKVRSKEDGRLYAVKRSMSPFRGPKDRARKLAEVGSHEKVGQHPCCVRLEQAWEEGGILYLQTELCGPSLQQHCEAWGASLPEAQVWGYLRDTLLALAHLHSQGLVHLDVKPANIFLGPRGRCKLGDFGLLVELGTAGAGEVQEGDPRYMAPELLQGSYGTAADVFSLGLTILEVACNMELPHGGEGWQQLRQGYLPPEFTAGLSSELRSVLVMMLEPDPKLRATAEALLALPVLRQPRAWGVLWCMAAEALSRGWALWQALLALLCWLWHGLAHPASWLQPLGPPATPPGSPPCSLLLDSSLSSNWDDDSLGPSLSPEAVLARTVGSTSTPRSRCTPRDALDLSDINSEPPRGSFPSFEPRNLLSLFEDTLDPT

This experiment has as its target recombinant human Myt1 (full length PKMYT1) (Homo sapiens (Human), UniProt Q99640). Briefly: Recombinant human Myt1 kinase assay (ADP-Glo). It counts as biochemical. Conditions: 10 μM ATP. The procedure:
Detection of Myt1 kinase activity utilized a recombinant human Myt1 kinase assay measuring the hydrolysis of ATP using a commercially available ADP-Glo Assay (ADP-Glo™ Kinase Assay from Promega, 10 000 assays, #V9102). Briefly, 5 μL recombinant human Myt1 (full length PKMYT1 recombinant human protein expressed in insect cells from Thermo Fisher #A33387; ˜80% purity) was prepared in reaction buffer (70 mM HEPES, 3 mM MgCl2, 3 mM MnCl2, 50 μg/ml PEG 20000, 3 μM Na-orthovanadate, 1.2 mM DTT) and added to 384 well white polystyrene, flat bottom well, non-treated, microplate (Corning #3572). After this, 5 μL of compounds (diluted in reaction buffer to 0.5% DMSO) was added to the microplate and the plate was spun briefly and incubated at 22° C. for 15 minutes. Ultra-Pure Adenosine Triphosphate (ATP) solution (ADP-Glo kit from Promega) was diluted in reaction buffer and 5 μL was added to the microplate, spun down briefly and incubated for 60 minutes at 30° C. The final Myt1 enzyme concentration was 18 nM and the final ATP concentration was 10 μM. After the 60-minute incubation, 15 μL of ADP-Glo reagent was added and the plate was spun briefly and sealed and incubated in the dark for 40 minutes at 22° C. Following this, 30 μL of kinase detection reagent was added per well and the plate was spun briefly, sealed and incubated for 45-60 minutes at 22° C. in the dark. Luminescence was read using the Envision (250 ms integration). The IC50 and the % max inhibition were calculated for each inhibitor compound tested.
For the molecule `Cc1ccc(O)cc1-c1nc(-c2ccc(N3CCOCC3)cc2)nc(C(N)=O)c1N` [Compound 37], the IC50 was determined as 42 nM.

As for `Cc1ccc2[nH]ncc2c1-c1cc(-c2ccnc(OC3COC3)n2)nc(C(N)=O)c1N` [Compound 176], the concentration for half-maximal inhibition (IC50) was determined as 770 nM.

Turning to `Cc1ccc2[nH]ncc2c1-c1cc(-c2ccnc(OCCOc3ccccc3)n2)nc(C(N)=O)c1N` [Compound 195], the IC50 stood at 182 nM.

Take `Cc1ccc2[nH]ncc2c1-c1cc(-c2ccnc(OCCc3cccnc3)n2)nc(C(N)=O)c1N` [Compound 272]: the half-maximal inhibitory concentration (IC50) was found to be 12 nM.

In the case of `Cc1ccnc(-c2cc(-c3c(C)ccc4[nH]ncc34)c(N)c(C(N)=O)n2)c1` [Compound 269], the half-inhibitory concentration (IC50) was found to be 18 nM.

As for `Cc1ccc2[nH]ncc2c1-c1cc(-c2ccn(C)n2)nc(C(N)=O)c1N` [Compound 171], the IC50 stood at 96 nM.

Take `Cc1ccc2[nH]ncc2c1-c1cc(-c2cccc(OC[C@H](N)C(C)C)n2)nc(C(N)=O)c1N` (atropisomer, axis not shown) [Compound 345]: the concentration for half-maximal inhibition (IC50) amounted to 1020 nM.

As to `Cc1nnc(COc2cccc(-c3cc(-c4c(C)ccc5[nH]ncc45)c(N)c(C(N)=O)n3)n2)o1` [Compound 318], the IC50 is 21 nM.

`COCCCOc1ccc(-c2nc(C(N)=O)c(N)c(-c3c(C)ccc4[nH]ncc34)n2)cc1` [Compound 138]: the half-maximal inhibitory concentration (IC50) came out at 43 nM.

In the case of `Cc1ccc2[nH]ncc2c1-c1cc(-c2ccc(OC3COC3)nc2)nc(C(N)=O)c1N` [Compound 201], the IC50 amounted to 91 nM.

For the molecule `Cc1ccc2[nH]ncc2c1-c1nc(-c2cccc(N3CCCC3)c2)nc(C(N)=O)c1N` [Compound 142], the half-inhibitory concentration (IC50) was determined as 54 nM.

Turning to `Cc1ccc2[nH]ncc2c1-c1cc(-c2ccnc(NCC3(O)COC3)n2)nc(C(N)=O)c1N` (atropisomer, axis not shown) [Compound 394], the half-maximal inhibitory concentration (IC50) was determined as 98 nM.

Consider `Cc1ccc2[nH]ncc2c1-c1nc(-c2ccc(CN3CCOCC3)s2)nc(C(N)=O)c1N` [Compound 156], for which the IC50 turned out to be 17 nM.

As to `Cc1ccc2[nH]ncc2c1-c1nc(-c2cccc(C(F)(F)F)c2)nc(C(N)=O)c1N` [Compound 112], the IC50 was 100 nM.

Regarding `Cc1ccc2[nH]ncc2c1-c1nc(-c2cccc(CN3CCOCC3)c2)nc(C(N)=O)c1N` [Compound 283], the IC50 was determined as 30 nM.

In the case of `Cc1ccc2[nH]ncc2c1-c1nc(-c2ccccc2NC(=O)C(C)C)nc(C(N)=O)c1N` [Compound 407], the IC50 was 4 nM.

Turning to `Cc1ccc2[nH]ncc2c1-c1cc(-c2ccnc(N3CCCC(O)C3)n2)nc(C(N)=O)c1N` (stereo not shown) [Compound 367], the IC50 is 9 nM.

For `Cc1ccc2[nH]ncc2c1-c1nc(-c2cccc3nc[nH]c23)nc(C(N)=O)c1N` [Compound 378], the half-maximal inhibitory concentration (IC50) turned out to be 18 nM.

Turning to `COc1cccc(-c2nc(C(N)=O)c(N)c(-c3c(C)ccc4[nH]ncc34)n2)c1` [Compound 141], the IC50 amounted to 23 nM.

In the case of `Cc1ccc2[nH]ncc2c1-c1cc(-c2ccnc(OCc3noc(C4CCCC4)n3)n2)nc(C(N)=O)c1N` [Compound 300], the 50% inhibitory concentration (IC50) was 100 nM.

For `CCC(C)COc1cccc(-c2cc(-c3c(C)ccc4[nH]ncc34)c(N)c(C(N)=O)n2)n1` (stereo not shown) [Compound 361], the half-maximal inhibitory concentration (IC50) worked out at 35 nM.

As for `Cc1ccc2[nH]ncc2c1-c1cc(-c2cccc(Oc3ccccn3)n2)nc(C(N)=O)c1N` [Compound 202], the IC50 is 107 nM.

Take `NC(=O)c1nc(-c2cccnc2)cc(-c2c(C(F)F)ccc3[nH]ncc23)c1N` [Compound 321, 5-amino-4-(5-(difluoromethyl)-1H-indazol-4-yl)-[2,3′-bipyridine]-6-carboxamide]: the 50% inhibitory concentration (IC50) was more than 2000 nM.

For the molecule `CCOC(=O)COc1cccc(-c2nc(C(N)=O)c(N)c(-c3c(C)ccc4[nH]ncc34)n2)c1` [Compound 293], the IC50 stood at 16 nM.

Turning to `Cc1ccc2[nH]ncc2c1-c1cc(-c2ccnc(OCc3cc4ccccc4o3)n2)nc(C(N)=O)c1N` [Compound 196], the IC50 turned out to be 754 nM.

Turning to `CNC(=O)c1cccc(-c2nc(C(N)=O)c(N)c(-c3c(C)ccc4[nH]ncc34)n2)c1` [Compound 285], the half-maximal inhibitory concentration (IC50) is 20 nM.

As for `Cc1ccc2[nH]ncc2c1-c1nc(-c2cccc(-n3cccn3)c2)nc(C(N)=O)c1N` [Compound 282], the IC50 stood at 13 nM.

In the case of `Cc1ccc2[nH]ncc2c1-c1cc(-c2ccnc(N[C@@H](CO)Cc3ccccc3)n2)nc(C(N)=O)c1N` (atropisomer, axis not shown) [Compound 383], the half-inhibitory concentration (IC50) came out at 2 nM.

With `Cc1ccc(O)c(C)c1-c1cc(-c2cc3ccccc3n2C)nc(C(N)=O)c1N` [Compound 46], the concentration for half-maximal inhibition (IC50) came out at 62 nM.

Consider `CO[C@H](COc1cccc(-c2cc(-c3c(C)ccc4[nH]ncc34)c(N)c(C(N)=O)n2)n1)C1CC1` (atropisomer, axis not shown) [Compound 364], for which the IC50 was found to be 8 nM.

Consider `COCCOc1ccc(-c2nc(C(N)=O)c(N)c(-c3c(C)ccc4[nH]ncc34)n2)cc1` [Compound 124], for which the concentration for half-maximal inhibition (IC50) was 25 nM.

For the molecule `Cc1ccc2[nH]ncc2c1-c1cc(-c2cc[nH]c(=O)c2)nc(C(N)=O)c1N` [Compound 237], the half-maximal inhibitory concentration (IC50) turned out to be 48 nM.

Consider `Cc1ccc2[nH]ncc2c1-c1cc(-c2ccnc(OCCc3ncccn3)n2)nc(C(N)=O)c1N` (atropisomer, axis not shown) [Compound 330], for which the concentration for half-maximal inhibition (IC50) was found to be 88 nM.

`Cc1ccc2[nH]ncc2c1-c1nc(-c2cccc(C(C)(C)C#N)c2)nc(C(N)=O)c1N` [Compound 126]: the IC50 amounted to 27 nM.

Turning to `Cc1ccc2[nH]ncc2c1-c1nc(-c2ccc(C3(C#N)CC3)cc2)nc(C(N)=O)c1N` [Compound 125], the 50% inhibitory concentration (IC50) worked out at 51 nM.

Turning to `Cc1ccc2[nH]ncc2c1-c1nc(-c2cccc(C(=O)N(C)C)c2)nc(C(N)=O)c1N` [Compound 284], the IC50 was determined as 38 nM.

For the molecule `Cc1ccc2n[nH]cc2c1-c1cc(-c2cccc(=O)[nH]2)nc(C(N)=O)c1N` [Compound 243], the IC50 was 73 nM.

For `Cc1ccc2[nH]ncc2c1-c1cc(-c2ccnc(N3CCCCC3CCO)n2)nc(C(N)=O)c1N` (stereo not shown) [Compound 404], the IC50 was determined as 24 nM.

For `Cc1ccc2[nH]ncc2c1-c1cc(Nc2ccccc2)nc(C(N)=O)c1N` [Compound 335, 3-amino-4-(5-methyl-1H-indazol-4-yl)-6-(phenylamino)picolinamide], the IC50 was 195 nM.

For the molecule `Cc1ccc2[nH]ncc2c1-c1cc(-c2ccnc(N3CCCC(CO)C3)n2)nc(C(N)=O)c1N` (stereo not shown) [Compound 346], the IC50 came to 13 nM.

In the case of `Cc1cnc(-c2nc(C(N)=O)c(N)c(-c3cc(O)ccc3C)n2)s1` [Compound 9], the IC50 worked out at 44 nM.

Take `Cc1ccc2[nH]ncc2c1-c1nc(-c2cccc(C=O)c2)nc(C(N)=O)c1N` [Compound 304]: the IC50 came out at 27 nM.

With `Cc1ccc2[nH]ncc2c1-c1nc(-c2ccnc(N3CCN(C)CC3)c2)nc(C(N)=O)c1N` [Compound 154], the IC50 worked out at 30 nM.

For `Cc1ccc(O)cc1-c1nc(-c2cccnc2)nc(C(N)=O)c1N` [Compound 21], the half-maximal inhibitory concentration (IC50) was 202 nM.

For `Cc1ccc2[nH]ncc2c1-c1nc(-c2cccc3c2NCC3)nc(C(N)=O)c1N` [Compound 386], the IC50 was 29 nM.

With `Cc1ccc2[nH]ncc2c1-c1cc(-c2cccc(OCc3c(F)c(F)c(F)c(F)c3F)n2)nc(C(N)=O)c1N` [Compound 258], the IC50 is more than 2000 nM.

As to `Cc1ccc2[nH]ncc2c1-c1cc(-c2ccnc(OC3CN(C(=O)OC(C)(C)C)C3)n2)nc(C(N)=O)c1N` [Compound 193], the IC50 came to 191 nM.

For the molecule `Cc1ccc2[nH]ncc2c1-c1nc(-c2cccc(C(=O)O)c2)nc(C(N)=O)c1N` [Compound 150], the IC50 came out at 1110 nM.

In the case of `Cc1ccc(O)cc1-c1cc(C(N)=O)nc2ccccc12` [Compound 74, 4-(5-hydroxy-2-methylphenyl)quinoline-2-carboxamide], the 50% inhibitory concentration (IC50) was determined as 2880 nM.

For `CCC(COc1cccc(-c2cc(-c3c(C)ccc4[nH]ncc34)cc(C(N)=O)n2)n1)OC` (stereo not shown) [Compound 498], the IC50 was 93 nM.

As for `Cc1cc(-c2nc(C(N)=O)c(N)c(-c3c(C)ccc4[nH]ncc34)n2)ccc1C#N` [Compound 151], the concentration for half-maximal inhibition (IC50) worked out at 27 nM.

For `Cc1ccc2[nH]ncc2c1-c1cc(-c2ccnc(N[C@H](CO)Cc3ccccc3)n2)nc(C(N)=O)c1N` (atropisomer, axis not shown) [Compound 370], the 50% inhibitory concentration (IC50) was determined as 869 nM.

Regarding `Cc1ccnc(-c2cc(-c3c(C)ccc4[nH]ncc34)c(N)c(C(N)=O)n2)c1` (atropisomer, axis not shown) [Compound 280], the IC50 was found to be 11 nM.

Take `Cc1ccc2[nH]ncc2c1-c1cc(-c2ccnc(N3CC[C@@H](O)C3)n2)nc(C(N)=O)c1N` [Compound 347]: the half-maximal inhibitory concentration (IC50) worked out at 18 nM.

Turning to `Cc1ccc2[nH]ncc2c1-c1nc(-c2cccc(N(C)C)c2)nc(C(N)=O)c1N` [Compound 139], the IC50 was 57 nM.

For `Cc1ccc2[nH]ncc2c1-c1nc(-c2ccc(CN3CCOCC3)cc2)nc(C(N)=O)c1N` [Compound 147], the half-maximal inhibitory concentration (IC50) worked out at 217 nM.

Take `Cc1ccc2[nH]ncc2c1-c1cc(-c2ccnc(N[C@@H]3c4ccccc4C[C@@H]3O)n2)nc(C(N)=O)c1N` (atropisomer, axis not shown) [Compound 384]: the IC50 amounted to 4 nM.

Take `Cc1ccc2[nH]ncc2c1-c1nc(-c2cccc(OCC(=O)O)c2)nc(C(N)=O)c1N` [Compound 294]: the IC50 was 17 nM.

The IC50 is the point on the concentration scale where inhibition reaches its midpoint.
